What was measured:
Human PARP-1 enzyme = target: T1, Human PARP-1 enzyme (Homo sapiens, UniProt P09874); assay: In vitro Scintillation Proximity Assay (SPA) for PARP-1 inhibitory activity; format: biochemical; settings: read-out: in vitro SPA assay PARP-1 pIC50 (converted)
T1 construct: purchased Trevigen
How it was run: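 SPA assay: nicked-DNA-activated PARP-1 (0.1–0.2 μg/ml) ADP-ribosylates biotinylated histones (2 μg/ml) using [3H]-NAD+, 20 min at RT in Tris pH 8/DTT/MgCl2, stopped with 2 mM NAD+. Blank-subtracted cpm expressed as % control; IC50 by linear interpolation, reported as pIC50 (10−5 to 3×10−9 M tested).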

HCT116 cells = assay: Antiproliferative activity, Alamar Blue assay, HCT116 cells; format: cell-based, human; settings: Homo sapiens, HCT-116, HCT116 cells; read-out: HCT116 antiproliferative activity pIC50 (converted)
How it was run: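 Readout is resazurin fluorescence (ex 540, em 590 nm) after a 4 h dye incubation at 37 °C, following 4-day compound treatment of HCT116 cells plated 24 h earlier. Results expressed as % viable cells versus untreated; pIC50 derived from probit-fitted IC50.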

T1 sequence (P09874 whole entry): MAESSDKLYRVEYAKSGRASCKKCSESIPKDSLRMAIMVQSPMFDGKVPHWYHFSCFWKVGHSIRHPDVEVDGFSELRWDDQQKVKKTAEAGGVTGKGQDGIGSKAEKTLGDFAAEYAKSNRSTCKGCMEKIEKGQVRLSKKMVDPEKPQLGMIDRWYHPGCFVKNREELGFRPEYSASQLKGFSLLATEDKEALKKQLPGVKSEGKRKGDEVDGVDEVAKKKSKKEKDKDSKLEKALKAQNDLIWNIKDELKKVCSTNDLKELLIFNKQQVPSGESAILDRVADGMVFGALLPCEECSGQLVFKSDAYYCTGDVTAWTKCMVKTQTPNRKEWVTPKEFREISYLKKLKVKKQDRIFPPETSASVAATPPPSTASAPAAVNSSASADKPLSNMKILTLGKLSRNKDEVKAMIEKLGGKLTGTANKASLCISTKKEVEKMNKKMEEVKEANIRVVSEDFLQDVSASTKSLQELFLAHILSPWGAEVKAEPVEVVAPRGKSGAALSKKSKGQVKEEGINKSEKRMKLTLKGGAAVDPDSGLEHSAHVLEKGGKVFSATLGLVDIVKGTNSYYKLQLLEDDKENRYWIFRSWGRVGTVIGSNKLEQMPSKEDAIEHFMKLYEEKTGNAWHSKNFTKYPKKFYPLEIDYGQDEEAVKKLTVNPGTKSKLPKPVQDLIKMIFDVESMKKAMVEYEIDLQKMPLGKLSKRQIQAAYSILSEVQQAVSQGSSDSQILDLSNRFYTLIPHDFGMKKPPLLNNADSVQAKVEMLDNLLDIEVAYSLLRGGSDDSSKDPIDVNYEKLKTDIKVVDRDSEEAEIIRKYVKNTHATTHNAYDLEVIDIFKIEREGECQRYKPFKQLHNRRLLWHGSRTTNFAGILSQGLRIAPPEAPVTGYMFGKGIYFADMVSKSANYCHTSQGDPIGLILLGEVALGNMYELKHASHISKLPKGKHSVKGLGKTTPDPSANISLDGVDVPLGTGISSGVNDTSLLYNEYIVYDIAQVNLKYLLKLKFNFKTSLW

Row | SMILES | IC50 (Human PARP-1 enzyme) [nM] | IC50 (HCT116 cells) [nM] | melting point [°C]
1 | CCc1cc2ccc(C(C)(C#N)Cc3cccc(I)c3)cc2[nH]c1=O (stereo not drawn) [Compound 19] | 1000 | 50.1 | 158
2 | CCc1cc2ccc(C(C)(C#N)Cc3cccc(N(C)C)c3)cc2[nH]c1=O (stereo not drawn) [Compound 20] | 398 | 200 | 193
3 | CCc1cc2ccc(C(C)(C#N)Cc3cccc(N4CCOCC4)c3)cc2[nH]c1=O (stereo not drawn) [Compound 21] | 398 | 1260 | 162
4 | CCc1cc2ccc(C(C)(C#N)Cc3cccc(S(F)(F)(F)(F)F)c3)cc2[nH]c1=O (stereo not drawn) [Compound 177] | 79.4 | 2000 | 124
5 | CCc1cc2ccc(C(C)(C#N)Cc3cccc(C4(N)CC4)c3)cc2[nH]c1=O (stereo not drawn) [Compound 180] | 25.1 | 2000 | > 250
6 | CCc1cc2ccc(C(C)(C#N)CCCN(C)C(=O)c3ccc(F)cc3)cc2[nH]c1=O (stereo not drawn) [Compound 188] | 79.4 | 1000 | 256
7 | CCc1cc2cc(C)c(C(C)(C#N)Cc3cccc(C#N)n3)cc2[nH]c1=O (stereo not drawn) [Compound 208] | 100 | 6310 | > 250
8 | COc1cc2ccc(C(C)(C#N)Cc3cccc(C#N)n3)cc2[nH]c1=O (stereo not drawn) [Compound 218] | 631 | 1260 | 95
9 | CCc1cc2ccc(C(C)(C#N)Cc3ccc(OC)nc3Cl)cc2[nH]c1=O (stereo not drawn) [Compound 224] | 12.6 | 2000 | 167
10 | CCc1cc2ccc(C(C)(C#N)Cc3ccc(Cl)nc3OC)cc2[nH]c1=O (stereo not drawn) [Compound 225] | 39.8 | 501 | 160
11 | CCc1cc2ccc(C(C)(C#N)Cc3cccc(N4CCCC4)n3)cc2[nH]c1=O (stereo not drawn) [Compound 226] | 50.1 | 1260 | 155
12 | CCc1cc2ccc(C(C)(C#N)Cc3cc(OC)cc(OC)n3)cc2[nH]c1=O (stereo not drawn) [Compound 232] | 25.1 | 100 | 65
13 | CCc1cc2ccc(C(C)(C#N)Cc3cc4ccccc4nn3)cc2[nH]c1=O (stereo not drawn) [Compound 238] | 39.8 | 1580 | 250

Further lines, results first:

Row | IC50 (Human PARP-1 enzyme) [nM] | IC50 (HCT116 cells) [nM] | melting point [°C] | SMILES
14 | 126 | > 10000 | 217 | CCc1cc2ccc(C(C)(C#N)Cc3cccc(O)c3)cc2[nH]c1=O (stereo not drawn) [Compound 22]
15 | 1260 | 3160 | 150 | CCc1cc2ccc(C(C)(C#N)Cc3cccc(OCc4ccccc4)c3)cc2[nH]c1=O (stereo not drawn) [Compound 23]
16 | 631 | 1000 | 134 | CCc1cc2ccc(C(C)(C#N)Cc3cccc(OCCOC)c3)cc2[nH]c1=O (stereo not drawn) [Compound 24]
17 | 39.8 | 100 | 212 | CCc1cc2ccc(C(C)(C#N)Cc3cc(C)cc(C#N)c3)cc2[nH]c1=O (stereo not drawn) [Compound 174]
18 | 63.1 | 10000 | 106 | CCc1cc2ccc([C@](C)(C#N)CN(C)Cc3ccc(C#N)cc3)cc2[nH]c1=O [Compound 190]
19 | 20 | 3160 | 222 | CCc1cc2ccc(C(C)(C#N)Cc3ccc(Cl)nc3Cl)cc2[nH]c1=O (stereo not drawn) [Compound 212]
20 | 20 | 200 | 250 | CCc1cc2ccc(C(C)(C#N)Cc3cc(C#N)cc4c3OCC4)cc2[nH]c1=O (stereo not drawn) [Compound 236]

— patent US8778966B2, “Quinolinone derivatives as PARP and tank inhibitors” (Janssen Pharmaceutica, NV, priority 2007, dated 2014)
